≈ marks a conversion by molar mass, not a printed value.

Broadly, the MIC is the smallest concentration in the dilution series that meets the test's criterion for growth inhibition.

One assay concerns Klebsiella pneumoniae PCM 1.
Assay: not given
It is filed as cell-based. The following applies: LB medium, 24 h, 30° C. As for the experimental part:
(§1) All strains were cultured in LB medium (lysogenic broth).
(§2) The test compounds were dissolved in water. […] Data were obtained from three independent experiments.
The compound `CCCCCCCCCC(=O)N[C@H](CNC(=O)N[C@@H](CCN)CNC(=O)N[C@H](CNC(=O)N[C@H](CNC(=O)N[C@@H](CCN)CNC(N)=O)CC(C)C)CC(C)C)Cc1ccccc1` [LOU3] registered an MIC of 20 µg/mL (≈ 22.5 µM).

As to `CCCCCCCCCC(=O)N[C@H](CNC(=O)N[C@@H](CCN)CNC(=O)N[C@@H](CCN)CNC(=O)N[C@H](CNC(=O)N[C@@H](CCN)CNC(N)=O)CC(C)C)Cc1ccccc1` [LOU4], the minimal inhibitory concentration (MIC) entry is “n.d. (n.d. = not determined, i.e., the MIC value was higher than 50 μg/mL)”.

The subject of another assay is Salmonella sv. typhimurium TT622.
Assay: not given
It is filed as cell-based. As to conditions: 24 h. As for the experimental part:
as §1, §2
On to `CCCCCCCCCC(=O)N[C@H](CNC(=O)N[C@@H](CCN)CNC(=O)N[C@H](CNC(=O)N[C@H](CNC(=O)N[C@@H](CCN)CNC(N)=O)CC(C)C)CC(C)C)Cc1ccccc1` [LOU3], for which the minimal inhibitory concentration (MIC) came out at 20 µg/mL (≈ 22.5 µM).

Staying with this assay, now noted: (−) Salmonella sv. typhimurium TT622; LB medium, 24 h, 30° C.
Turning to `CCCCCCCCCC(=O)N[C@H](CNC(=O)N[C@@H](CCN)CNC(=O)N[C@@H](CCN)CNC(=O)N[C@H](CNC(=O)N[C@@H](CCN)CNC(N)=O)CC(C)C)Cc1ccccc1` [LOU4], the MIC entry is recorded as “n.d. (n.d. = not determined, i.e., the MIC value was higher than 50 μg/mL)”.

The next assay concerns Yersinia enterocolitica PCM 2081.
Assay: not given
It is filed as cell-based. As to conditions: LB medium, 24 h, 30° C. As for the experimental part: as §1, §2
Regarding `CCCCCCCCCC(=O)N[C@H](CNC(=O)N[C@@H](CCN)CNC(=O)N[C@H](CNC(=O)N[C@H](CNC(=O)N[C@@H](CCN)CNC(N)=O)CC(C)C)CC(C)C)Cc1ccccc1` [LOU3], the MIC was determined as 10 µg/mL (≈ 11.2 µM).

As to `CCCCCCCCCC(=O)N[C@H](CNC(=O)N[C@@H](CCN)CNC(=O)N[C@@H](CCN)CNC(=O)N[C@H](CNC(=O)N[C@@H](CCN)CNC(N)=O)CC(C)C)Cc1ccccc1` [LOU4], the MIC entry is on record as “n.d. (n.d. = not determined, i.e., the MIC value was higher than 50 μg/mL)”.

For a further assay, the system named is Pseudomonas aeruginosa PAO1 PCM 499.
Assay: not given
Type of assay: cell-based. As to conditions: LB medium, 24 h, 30° C. As for the experimental part:
as §1, §2
`CCCCCCCCCC(=O)N[C@H](CNC(=O)N[C@@H](CCN)CNC(=O)N[C@H](CNC(=O)N[C@H](CNC(=O)N[C@@H](CCN)CNC(N)=O)CC(C)C)CC(C)C)Cc1ccccc1` [LOU3] yielded an MIC of 10 µg/mL (≈ 11.2 µM).

In the case of `CCCCCCCCCC(=O)N[C@H](CNC(=O)N[C@@H](CCN)CNC(=O)N[C@@H](CCN)CNC(=O)N[C@H](CNC(=O)N[C@@H](CCN)CNC(N)=O)CC(C)C)Cc1ccccc1` [LOU4], the minimal inhibitory concentration (MIC) result is recorded as “n.d. (n.d. = not determined, i.e., the MIC value was higher than 50 μg/mL)”.

The test system of the next assay is Enterococcus faecalis ATCC 14506.
Assay: not given
Type of assay: cell-based. As to conditions: LB medium, 24 h, 30° C. As for the experimental part:
as §1, §2
Regarding `CCCCCCCCCC(=O)N[C@H](CNC(=O)N[C@@H](CCN)CNC(=O)N[C@H](CNC(=O)N[C@H](CNC(=O)N[C@@H](CCN)CNC(N)=O)CC(C)C)CC(C)C)Cc1ccccc1` [LOU3], the minimal inhibitory concentration (MIC) turned out to be 5 µg/mL (≈ 5.62 µM).

As to `CCCCCCCCCC(=O)N[C@H](CNC(=O)N[C@@H](CCN)CNC(=O)N[C@@H](CCN)CNC(=O)N[C@H](CNC(=O)N[C@@H](CCN)CNC(N)=O)CC(C)C)Cc1ccccc1` [LOU4], the MIC amounted to 40 µg/mL (≈ 45.6 µM).

The subject of the next assay is Staphylococcus aureus ATCC 29213.
Assay: not given
The following applies: LB medium, 24 h, 30° C. It is filed as cell-based. As for the experimental part:
as §1, §2
On to `CCCCCCCCCC(=O)N[C@H](CNC(=O)N[C@@H](CCN)CNC(=O)N[C@H](CNC(=O)N[C@H](CNC(=O)N[C@@H](CCN)CNC(N)=O)CC(C)C)CC(C)C)Cc1ccccc1` [LOU3], for which the MIC came to 5 µg/mL (≈ 5.62 µM).

With `CCCCCCCCCC(=O)N[C@H](CNC(=O)N[C@@H](CCN)CNC(=O)N[C@@H](CCN)CNC(=O)N[C@H](CNC(=O)N[C@@H](CCN)CNC(N)=O)CC(C)C)Cc1ccccc1` [LOU4], the minimum inhibitory concentration (MIC) came out at 20 µg/mL (≈ 22.8 µM).

The test system of a further assay is Escherichia coli ST2-8624 O157:H7.
Assay: not given
It is filed as cell-based. The following applies: LB medium, 24 h, 30° C. As for the experimental part:
as §1, §2
With `CCCCCCCCCC(=O)N[C@H](CNC(=O)N[C@@H](CCN)CNC(=O)N[C@H](CNC(=O)N[C@H](CNC(=O)N[C@@H](CCN)CNC(N)=O)CC(C)C)CC(C)C)Cc1ccccc1` [LOU3], the MIC is 10 µg/mL (≈ 11.2 µM).

`CCCCCCCCCC(=O)N[C@H](CNC(=O)N[C@@H](CCN)CNC(=O)N[C@@H](CCN)CNC(=O)N[C@H](CNC(=O)N[C@@H](CCN)CNC(N)=O)CC(C)C)Cc1ccccc1` [LOU4]: the MIC result was “n.d. (n.d. = not determined, i.e., the MIC value was higher than 50 μg/mL)”.

A further assay has as its system Staphylococcus epidermidis ATCC 12228.
Assay: not given
Type of assay: cell-based. The following applies: LB medium, 24 h, 30° C. As for the experimental part:
as §1, §2
As to `CCCCCCCCCC(=O)N[C@H](CNC(=O)N[C@@H](CCN)CNC(=O)N[C@H](CNC(=O)N[C@H](CNC(=O)N[C@@H](CCN)CNC(N)=O)CC(C)C)CC(C)C)Cc1ccccc1` [LOU3], the MIC turned out to be 5 µg/mL (≈ 5.62 µM).

As for `CCCCCCCCCC(=O)N[C@H](CNC(=O)N[C@@H](CCN)CNC(=O)N[C@@H](CCN)CNC(=O)N[C@H](CNC(=O)N[C@@H](CCN)CNC(N)=O)CC(C)C)Cc1ccccc1` [LOU4], the minimal inhibitory concentration (MIC) worked out at 20 µg/mL (≈ 22.8 µM).

A further assay deals with strains of methicillin-resistant Staphylococcus aureus (MRSA). Nature of the assay: Activity against MRSA strains (summary of the MIC results). It is filed as cell-based. As to conditions: in words, from the MIC values of Table 1. As for the experimental part: as §1, §2
The results of the measurements summarized in Table 1 indicate that all of the lipooligoureas tested show varying activity against the bacterial strains tested. Lipooligoureas according to the invention show activity against both gram-positive and gram-negative bacterial strains. The results obtained indicate a certain degree of selectivity of the lipooligoureas according to the invention against gram-positive strains of Staphylococcus aureus ATCC 29213 and Staphylococcus epidermidis ATCC 12228, for which by far the highest activity of the tested lipooligoureas was observed, i.e. the lowest values of MIC. This trend is also reflected in the activity against strains of methicillin-resistant Staphylococcus aureus (MRSA).
Regarding `CCCCCCCCCC(=O)N[C@H](CNC(=O)N[C@@H](CCN)CNC(=O)N[C@H](CNC(=O)N[C@H](CNC(=O)N[C@@H](CCN)CNC(N)=O)CC(C)C)CC(C)C)Cc1ccccc1` [LOU3], the “activity against strains of methicillin-resistant Staphylococcus aureus (MRSA)” value is given as “particularly high activity”.

In another assay the test system is Methicillin-resistant Staphylococcus aureus (MRSA) 5288/13.
Assay: not given
As to conditions: MRSA strain (+) 5288/13; LB medium, 24 h, 30° C. An excerpt: (§3) All bacterial strains were obtained from the Polish Collection of Microorganisms (PCM) or American Type Culture Collection (ATCC). Gram-positive bacterial strains: Staphylococcus aureus ATCC 29213, Staphylococcus epidermidis ATCC 12228, Enterococcus faecalis ATCC 14506. Methicillin-resistant Staphylococcus aureus (MRSA) bacterial strains: Staphylococcus aureus 401/5, Staphylococcus aureus 4811/13, Staphylococcus aureus 5288/13. Gram-negative bacterial strains: Escherichia coli ST2-8624 O157:H7, Pseudomonas aeruginosa PAO1 PCM 499, Klebsiella pneumoniae PCM 1, Salmonella sv. typhimurium TT622, and Yersinia enterocolitica PCM 2081. All strains were cultured in LB medium (lysogenic broth).
(§4) 10 mL of LB medium was inoculated with the material from a single bacterial colony and cultured at 30° C. with shaking overnight. The optical density of overnight cultures (at 600 nm) was then brought to 0.05 by dilution with a fresh portion of LB medium. The test compounds were dissolved in water. Serial dilutions of the compounds were performed in LB medium ranging from 5 to 50 μg/mL (final concentrations). The experiment was carried out by adding 100 μL of each prepared dilution to 100 μL of diluted overnight bacterial culture in the wells of a 96-well titer plate. […] Optical density measurements were conducted using a TECAN Sunrise plate reader. Data were obtained from three independent experiments.
The compound `CCCCCCCCCC(=O)N[C@H](CNC(=O)N[C@@H](CCN)CNC(=O)N[C@H](CNC(=O)N[C@H](CNC(=O)N[C@@H](CCN)CNC(N)=O)CC(C)C)CC(C)C)Cc1ccccc1` [LOU3] registered an MIC of 5 µg/mL (≈ 5.62 µM).

Turning to `CCCCCCCCCC(=O)N[C@H](CNC(=O)N[C@@H](CCN)CNC(=O)N[C@@H](CCN)CNC(=O)N[C@H](CNC(=O)N[C@@H](CCN)CNC(N)=O)CC(C)C)Cc1ccccc1` [LOU4], the MIC was determined as 30 µg/mL (≈ 34.2 µM).

The test system of the next assay is Methicillin-resistant Staphylococcus aureus (MRSA) 4811/13.
Assay: not given
As to conditions: MRSA strain (+) 4811/13; LB medium, 24 h, 30° C.
From the text: as §3, §4
For the compound `CCCCCCCCCC(=O)N[C@H](CNC(=O)N[C@@H](CCN)CNC(=O)N[C@H](CNC(=O)N[C@H](CNC(=O)N[C@@H](CCN)CNC(N)=O)CC(C)C)CC(C)C)Cc1ccccc1` [LOU3], the MIC amounted to 5 µg/mL (≈ 5.62 µM).

Turning to `CCCCCCCCCC(=O)N[C@H](CNC(=O)N[C@@H](CCN)CNC(=O)N[C@@H](CCN)CNC(=O)N[C@H](CNC(=O)N[C@@H](CCN)CNC(N)=O)CC(C)C)Cc1ccccc1` [LOU4], the minimal inhibitory concentration (MIC) is 30 µg/mL (≈ 34.2 µM).

A further assay deals with Methicillin-resistant Staphylococcus aureus (MRSA) 401/5.
Assay: not given
The following applies: MRSA strain (+) 401/5; LB medium, 24 h, 30° C.
From the text: as §3, §4
With `CCCCCCCCCC(=O)N[C@H](CNC(=O)N[C@@H](CCN)CNC(=O)N[C@H](CNC(=O)N[C@H](CNC(=O)N[C@@H](CCN)CNC(N)=O)CC(C)C)CC(C)C)Cc1ccccc1` [LOU3], the MIC stood at 5 µg/mL (≈ 5.62 µM).

In the case of `CCCCCCCCCC(=O)N[C@H](CNC(=O)N[C@@H](CCN)CNC(=O)N[C@@H](CCN)CNC(=O)N[C@H](CNC(=O)N[C@@H](CCN)CNC(N)=O)CC(C)C)Cc1ccccc1` [LOU4], the MIC was 20 µg/mL (≈ 22.8 µM).
